Patent US20240390371A1, “HETEROARYL AND HETEROCYCLIC COMPOUNDS FOR TREATING ACUTE INFLAMMATION” (TES Pharma S.r.l., priority 2023, published 2024)

Legend:
[1] = system: Kupffer cells; assay: Gene expression in Kupffer cells after LPS-induced inflammation; assay type: cell-based, mouse; conditions: compound 10 μM
Method: […] stimulated with LPS overnight […] (1 mg/mL stock solution in H2O, dispensed at 50 ng/mL in the well) final concentration. Cells treated with DMSO were used as control at the final concentration of 0.5% in medium. All the wells were normalized with DMSO at 0.5% final concentration. The supernatant was collected to measure cytokine secretion using a Bio-Plex Pro mouse cytokine 23-plex assay system (cat #M60009RDPD) using a Bio-Plex Instrument. The cells were washed once with PBS, and then lysed to extract total RNA for performing RT-PCR to evaluate ACMSD modulation of IL-10, SIRT1, and STAT3 gene expression.
Briefly, total RNA was extracted from the cells using the manufacturer's protocol for Qiagen RNeasy Plus Mini Kit (cat. 74134). The total RNA concentration was quantified using an Implen Instrument, and the purity was evaluated by measuring the ratio of A260/A280.
Total RNA (1 μg) was reverse transcribed using the manufacturer's protocol for SuperScript IV VILO Master Mix (ThermoFisher cat. #. 11756500). Real-time PCR was then performed in CFX 96 Real Time System (Bio-Rad) as follows: denaturation at 95° C. for 2 minutes, followed by 40 cycles at 95° C. for 10 s, and hybridization at 60° C. for 20 s. QPCR was performed using the 2× QuantiNova SYBR Green PCR Master Mix (Qiagen). Mouse β2 microglobulin (m β2M) was used as a reference gene.
Following inflammation induced by LPS (Kupffer cells treated with LPS 50 ng/mL […] incubation time) ACMSD inhibition, with compound I-34, reverses the changes in the expression of inflammatory modulators. Expression of pro-inflammatory genes is reduced (TNF-α, IL-6, and iNOS) and that of anti-inflammatory genes is increased (Arg-1, IL-10, and MRC2) by ACMSD inhibition.

[2] = system: HK-2 cells; assay: Gene expression in HK-2 cells after LPS stimulus; assay type: cell-based
Method: ((N=3) One way Anova: Dunnett's test: **p<0.01 vs pathological control.)
ACMSD inhibition, with compound I-34, decreased inflammatory gene expression (IL-6 and TNF-α) in HK-2 cells following an 18 h stimulus with 30 μg/ml of LPS.

[3] = system: Kupffer cells; assay: Cytokine secretion in Kupffer cells exposed to LPS; assay type: cell-based, mouse; conditions: LPS 24 h, compound 1 μM
From the text: […] Cells treated with DMSO were used as control at the final concentration of 0.5% in medium. All the wells were normalized with DMSO at 0.5% final concentration. The supernatant was collected to measure cytokine secretion using a Bio-Plex Pro mouse cytokine 23-plex assay system (cat #M60009RDPD) using a Bio-Plex Instrument. The cells were washed once with PBS, and then lysed to extract total RNA for performing RT-PCR to evaluate ACMSD modulation of IL-10, SIRT1, and STAT3 gene expression.
All cytokine secretion values were normalized to the luminescent signal relative to the measuring of the cellular ATP (CellTiter-Glo cat #G7571)).
(§1) (One way Anova: Dunnett's test: **p<0.01, ***p<0.001; vs pathological control.)

[4] = system: HK-2 cells; assay: Fibrotic gene expression in HK-2 cells after TGFβ insult; assay type: cell-based; conditions: pre-treatment, TGFβ insult at 10 ng/mL
From the text: (§2) ((N=3) One way Anova: Dunnett's test: **p<0.01, ***p<0.001; vs pathological control.)

[5] = system: mouse primary hepatocytes and murine stellate cells; assay: Gene expression in co-cultured mouse primary hepatocytes and murine stellate cells exposed to free fatty acids; assay type: cell-based; conditions: co-culture exposed to free fatty acids (MIX)
From the text: Mouse primary hepatocytes and murine stellate cells were co-cultured with FFA to induce fibrosis as observed in NASH patients.
as §1

[6] = system: 3D human liver microtissues; assay: Cytokine expression and secretion in 3D human liver microtissues (organoids); assay type: cell-based; conditions: free fatty acids mix and LPS 10 μg/mL, compound 10 and 50 μM, dose-response manner
Method: 3D InSight™ Human Liver Microtissues (organoids) composed of multi-donor primary human hepatocytes in co-culture with Non-Parenchymal Cells (NPC), containing primary human Kupffer cells and primary Liver Endothelial Cells (LEC) were provided by Insphero, Switzerland. These human liver organoids to evaluate the anti-inflammatory effect of ACMSD inhibition.
The organoids were treated with free fatty acids (palmitic acid and oleic acid according to manufacturer's instructions) and lipopolisaccaride (LPS) in a diabetic medium (Insphero) at the concentration of 10 μg/mL to induce lipid accumulation in hepatocytes and pro-inflammatory cytokine secretion including; TNF-α, IL-6, IL-8, MCP-1, and MIP1α. Vehicle control solution was prepared as negative control. DMSO was maintained constant concentration of 0.1% total solution.
Two concentrations of compound I-34 (10 μM and 50 μM) were used and added together with the NASH stimuli mix. Cytokine secretion was measured in cell medium at day 4 following treatment using the Bio-Plex Pro Human Cytokine Screening Panel (Bio-Rad) according to manufacturer's instructions.
3D human liver microtissues were treated with vehicle (DMSO), a mix of free fatty acids and LPS (10 μg/mL) and mix together with two concentrations of compound I-34 (10 and 50 μM). […]

[7] = system: HK-2 proximal tubule cells; assay: Cisplatin-induced apoptosis (Caspases 3/7 activity) in HK-2 cells; assay type: cell-based; conditions: Cisplatin 50 μM; compound 10, 50 and 100 μM added 1 hr before Cisplatin injury
From the text: as §2

[8] = 18 h stimulus with 30 μg/ml LPS, compound 100 μM

## N#Cc1c(Cc2ccccc2)nc(SCc2cccc(-c3nnn[nH]3)c2)[nH]c1=O [Compound I-34, 4-Benzyl-6-oxo-2-[3-(1H-tetrazol-5-yl)-benzylsulfanyl]-1,6-dihydro-pyrimidine-5 carbonitrile]
[1]; LPS 50 ng/mL
  Expression of anti-inflammatory genes (Arg-1, IL-10, and MRC2): increased
  Expression of pro-inflammatory genes (TNF-α, IL-6, and iNOS): reduced
[1]; LPS
  QPRT expression: reversed LPS-induced reduction of QPRT expression
[2]; [8]
  ACMSD expression: does not significantly affect
  Inflammatory gene expression (IL-6 and TNF-α): decreased
[2]; 18 h stimulus with 30 μg/ml LPS, several concentrations
  Inflammatory gene expression (IL-6 and TNF-α), dose response: decreased inflammatory gene expression (IL-6 and TNF-α) in a dose response manner
[2]; LPS 18 h, compound 100 μM
  QPRT expression: reversed LPS-induced reduction of QPRT expression
[3]
  Secretion of pro inflammatory cytokines (IL-1β, IL-6, TNF-α): decreased
[4]
  Fibrotic gene expression (Fibronectin and TIMP2): decreased fibrotic gene expression (Fibronectin and TIMP2) in a dose response manner
[5]
  Expression of pro-fibrotic and pro-inflammatory genes: decreased
[6]; day 4
  Cytokine secretion (hepatic inflammation): reducing
[6]
  Cytokine expression (hepatic inflammation): reducing
[7]
  Cisplatin-induced apoptosis (Caspases 3/7 activity): provides protection
